Data taken from BindingDB's records for doi:10.1016/j.bmcl.2017.10.036 (Williams College, 2017).

Target: T1, Histidine kinase (Caulobacter vibrioides, UniProt Q9X688)
T1 sequence (Q9X688 whole entry): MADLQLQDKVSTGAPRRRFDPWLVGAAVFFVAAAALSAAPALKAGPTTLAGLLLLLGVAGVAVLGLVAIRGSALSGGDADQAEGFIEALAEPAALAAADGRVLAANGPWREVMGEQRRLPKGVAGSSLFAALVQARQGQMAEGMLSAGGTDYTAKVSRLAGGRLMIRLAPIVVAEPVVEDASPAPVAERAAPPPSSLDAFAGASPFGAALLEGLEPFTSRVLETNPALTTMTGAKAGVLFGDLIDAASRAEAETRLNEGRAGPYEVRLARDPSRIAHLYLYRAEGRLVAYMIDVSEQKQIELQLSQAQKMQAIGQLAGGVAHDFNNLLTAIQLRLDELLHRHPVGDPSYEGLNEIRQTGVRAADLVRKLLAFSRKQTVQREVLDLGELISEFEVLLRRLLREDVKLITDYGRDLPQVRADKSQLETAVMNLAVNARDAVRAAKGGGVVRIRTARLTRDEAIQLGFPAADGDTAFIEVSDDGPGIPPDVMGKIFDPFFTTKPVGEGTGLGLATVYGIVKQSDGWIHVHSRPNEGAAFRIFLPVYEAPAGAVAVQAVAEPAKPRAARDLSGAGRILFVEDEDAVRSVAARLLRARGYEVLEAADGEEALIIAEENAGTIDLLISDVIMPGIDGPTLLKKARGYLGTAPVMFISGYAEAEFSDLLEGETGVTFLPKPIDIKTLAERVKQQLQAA
Assay: Inhibition of recombinant Caulobacter vibrioides cell cycle histidine kinase CckA deltaTM mutant DHp domain (70 to 691 residues) expressed in Escherichia coli in presence of varying levels of ATP measured every 60 secs for 2 hrs by PK/LDH enzyme coupled assay

Compound | IC50
Oc1cc(O)c(-c2n[nH]cc2-c2ccc3c(c2)OCCO3)cc1Cl | 32.3 µM
COc1ccc(-c2c(-c3cc(Cl)c(O)cc3O)n[nH]c2C)cc1 | 12.3 µM
CCc1cc(-c2n[nH]c(C)c2-c2ccc3c(c2)OCCO3)c(O)cc1O | 28 µM
Cc1[nH]nc(-c2cc(Cl)c(O)cc2O)c1-c1ccc2c(c1)OCCO2 [4-chloro-6-[4-(2,3-dihydro-1,4-benzodioxin-6-yl)-5-methyl-1H-pyrazol-3-yl]benzene-1,3-diol] | 11.2 µM
CCNC(=O)c1noc(-c2cc(C(C)C)c(O)cc2O)c1-c1ccc(CN2CCOCC2)cc1 [5-[2,4-dihydroxy-5-(propan-2-yl)phenyl]-N-ethyl-4-[4-(morpholin-4-ylmethyl)phenyl]-1,2-oxazole-3-carboxamide] | 7.3 µM
